# From ChEMBL document CHEMBL1782033, “Dimeric prenylated C6-C3 compounds from the stem bark of Illicium oligandrum” (2011)
# Experiment: Antiinflammatory activity in rat Polymorphonuclear leukocytes assessed as inhibition of platelet-activating factor-induced beta-glucuronidase release at 10 uM
# Format: functional
row,Structure (SMILES),inhibition at 10 µM [%]
1,C=CC[C@]1(O)C(=O)C=C2O[C@H](C(C)(C)O)C[C@@]23[C@@H]2C(=O)[C@@](O)(CC=C)[C@@H](C4=C2OC(C)(C)[C@H](O)C4)[C@H]31 [ILLICIDIONE A],38.2
2,C[C@@H]1C(=O)O[C@H]2[C@H](O)[C@@]34[C@H]5C[C@@H](C(C)(C)C)[C@]36[C@@H](OC(=O)[C@@H]6O)O[C@@]4(C(=O)O5)[C@@]12O [GINKOLIDE B],83.5
3,C=CCC1=C[C@]2(O)C[C@H](C(C)(C)O)OC2=C(CC2=C3O[C@@H](C(C)(C)O)C[C@@]3(O)C=C(CC=C)C2=O)C1=O [ILLICIDIONE B],18.6
4,C=CC[C@H]1C[C@]2(O)C[C@H](C(C)(C)O)OC2=C(CC2=C3O[C@@H](C(C)(C)O)C[C@@]3(O)C[C@H](CC=C)C2=O)C1=O [ILLICIDIONE C],25.3
